Experimental data taken from patent US12655116B2, “Substituted isophthalic acid diamides” (Bayer Aktiengesellschaft, priority 2020, dated 2026).

What was measured:
[1] = system: POLCO; experiment: Post-emergence herbicidal action against POLCO; type: in vivo, Polygonum convolvulus; conditions: Fallopia convolvulus, 504 h, dosage 20 g/ha
Outline: (§1)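 Foliar application at one-leaf stage of formulated test compounds, aqueous spray at 600–800 l/ha with 0.2% wetting agent. Greenhouse, optimal conditions, ~3 weeks; damage scored visually in % relative to untreated plants.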

[2] = system: DIGSA; experiment: Post-emergence herbicidal action against DIGSA; type: in vivo, Digitaria sanguinalis; conditions: Digitaria sanguinalis, 504 h
Outline: as §1

[3] = system: LOLRI; experiment: Pre-emergence herbicidal action against LOLRI; type: in vivo, Lolium rigidum; conditions: Lolium rigidum, 504 h, 80 g/ha
Outline: (§2)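 Greenhouse pots of sandy loam held seeds covered with soil, onto which the compound was applied before emergence. An aqueous suspension or emulsion of WP or EC was used at 600 to 800 l/ha with 0.2% wetting agent. Percent damage was judged visually at 3 weeks.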

[4] = system: VIOTR; experiment: Pre-emergence herbicidal action against VIOTR; type: in vivo, Viola tricolor; conditions: Viola tricolor, 504 h; for pest or weed control at 20 g/ha: dosage 20 g/ha; for pest or weed control at 80 g/ha: dosage 80 g/ha
Outline: as §2

[5] = system: SETVI; experiment: Pre-emergence herbicidal action against SETVI; type: in vivo, Setaria viridis; conditions: Setaria viridis, 504 h; for pest or weed control at 80 g/ha: dosage 80 g/ha
Outline: as §2

[6] = system: ABUTH; experiment: Pre-emergence herbicidal action against ABUTH; type: in vivo, Abutilon theophrasti; conditions: Abutilon theophrasti, 504 h; for pest or weed control at 80 g/ha: scored visually after 3 weeks vs untreated controls (100% = plants have died, 0% = like control plants); for pest or weed control at 20 g/ha: dosage 20 g/ha, scored visually after 3 weeks vs untreated controls, 100% = plants have died, 0% = like control plants, read-out: Pre-emergence action against ABUTH (herbicidal activity in percent)
Outline: as §2

[7] = system: MATIN; experiment: Pre-emergence herbicidal action against MATIN; type: in vivo, Matricaria inodora; conditions: Tripleurospermum inodorum, 504 h; for pest or weed control at 20 g/ha: dosage 20 g/ha; for pest or weed control at 80 g/ha: dosage 80 g/ha
Outline: as §2

[8] = system: ALOMY; experiment: Pre-emergence herbicidal action against ALOMY; type: in vivo, Alopecurus myosuroides; conditions: Alopecurus myosuroides, 504 h, pre-emergence; for pest or weed control at 80 g/ha: scored visually after 3 weeks vs untreated controls (100% = plants have died, 0% = like control plants); for pest or weed control at 20 g/ha: scored visually after 3 weeks, 100% = plants have died, 0% = like control plants
Outline: as §2

[9] = system: STEME; experiment: Post-emergence herbicidal action against STEME; type: in vivo, Stellaria media; conditions: Stellaria media, 504 h; for pest or weed control at 5 g/ha: dosage 5 g/ha
Outline: as §1

[10] = system: VERPE; experiment: Pre-emergence herbicidal action against VERPE; type: in vivo, Veronica persica; conditions: Veronica persica, 504 h, dosage 80 g/ha
Outline: as §2

[11] = system: STEME; experiment: Pre-emergence herbicidal action against STEME; type: in vivo, Stellaria media; conditions: Stellaria media, 504 h; for pest or weed control at 20 g/ha: dosage 20 g/ha; for pest or weed control at 80 g/ha: dosage 80 g/ha
Outline: as §2

[12] = system: AVEFA; experiment: Post-emergence herbicidal action against AVEFA; type: in vivo, Avena fatua; conditions: Avena fatua, 504 h, 20 g/ha, visual assessment about 3 weeks after treatment, 100% = plants have died, 0% = like control plants
Outline: as §1

[13] = system: ECHCG; experiment: Pre-emergence herbicidal action against ECHCG; type: in vivo, Echinochloa crus-galli; conditions: Echinochloa crus-galli, 504 h
Outline: as §2

[14] = system: AMARE; experiment: Pre-emergence herbicidal action against AMARE; type: in vivo, Amaranthus retroflexus; conditions: Amaranthus retroflexus, 504 h, scored visually after 3 weeks vs untreated controls, 100% = plants have died, 0% = like control plants
Outline: as §2

[15] = system: ABUTH; experiment: Post-emergence herbicidal action against ABUTH; type: in vivo, Abutilon theophrasti; conditions: Abutilon theophrasti, 504 h, visual assessment about 3 weeks after treatment vs untreated controls; for pest or weed control at 5 g/ha: dosage 5 g/ha; for pest or weed control at 20 g/ha: dosage 20 g/ha
Outline: as §1

[16] = system: AVEFA; experiment: Pre-emergence herbicidal action against AVEFA; type: in vivo, Avena fatua; conditions: Avena fatua, 504 h, pre-emergence; for pest or weed control at 20 g/ha: scored visually after 3 weeks, 100% = plants have died, 0% = like control plants
Outline: as §2

[17] = system: ECHCG; experiment: Post-emergence herbicidal action against ECHCG; type: in vivo, Echinochloa crus-galli; conditions: Echinochloa crus-galli, 504 h, dosage 20 g/ha
Outline: as §1

[18] = system: HORMU; experiment: Pre-emergence herbicidal action against HORMU; type: in vivo, Hordeum murinum; conditions: for pest or weed control at 80 g/ha: Hordeum murinum, 504 h, pre-emergence
Outline: as §2

[19] = system: AMARE; experiment: Post-emergence herbicidal action against AMARE; type: in vivo, Amaranthus retroflexus; conditions: Amaranthus retroflexus, 504 h, 20 g/ha, visual assessment about 3 weeks after treatment, 100% = plants have died, 0% = like control plants
Outline: as §1

[20] = system: VIOTR; experiment: Post-emergence herbicidal action against VIOTR; type: in vivo, Viola tricolor; conditions: Viola tricolor, 504 h
Outline: as §1

[21] = system: DIGSA; experiment: Pre-emergence herbicidal action against DIGSA; type: in vivo, Digitaria sanguinalis; conditions: Digitaria sanguinalis, 504 h; for pest or weed control at 20 g/ha: dosage 20 g/ha; for pest or weed control at 80 g/ha: dosage 80 g/ha
Outline: as §2

[22] = system: MATIN; experiment: Post-emergence herbicidal action against MATIN; type: in vivo, Matricaria inodora; conditions: Tripleurospermum inodorum, 504 h; for pest or weed control at 20 g/ha: dosage 20 g/ha
Outline: as §1

[23] = system: ALOMY; experiment: Post-emergence herbicidal action against ALOMY; type: in vivo, Alopecurus myosuroides; conditions: Alopecurus myosuroides, 504 h, dosage 20 g/ha, visual assessment about 3 weeks after treatment vs untreated controls
Outline: as §1

[24] = system: POLCO; experiment: Pre-emergence herbicidal action against POLCO; type: in vivo, Polygonum convolvulus; conditions: Fallopia convolvulus, 504 h, dosage 80 g/ha
Outline: as §2

[25] = system: SETVI; experiment: Post-emergence herbicidal action against SETVI; type: in vivo, Setaria viridis; conditions: Setaria viridis, 504 h
Outline: as §1

[26] = system: PHBPU; experiment: Pre-emergence herbicidal action against PHBPU; type: in vivo, Pharbitis purpurea; conditions: Ipomoea purpurea, 504 h, dosage 80 g/ha
Outline: as §2

[27] = system: PHBPU; experiment: Post-emergence herbicidal action against PHBPU; type: in vivo, Pharbitis purpurea; conditions: Ipomoea purpurea, 504 h, dosage 20 g/ha
Outline: as §1

Compound | pest or weed control at 20 g/ha [1] [%] | pest or weed control at 5 g/ha [2] [%] | pest or weed control at 20 g/ha [2] [%] | pest or weed control at 80 g/ha [3] [%] | pest or weed control at 20 g/ha [4] [%] | pest or weed control at 80 g/ha [4] [%] | pest or weed control at 80 g/ha [5] [%] | pest or weed control at 80 g/ha [6] [%] | pest or weed control at 20 g/ha [6] [%] | pest or weed control at 20 g/ha [7] [%] | pest or weed control at 80 g/ha [7] [%] | pest or weed control at 80 g/ha [8] [%] | pest or weed control at 20 g/ha [8] [%] | pest or weed control at 20 g/ha [9] [%] | pest or weed control at 5 g/ha [9] [%] | pest or weed control at 80 g/ha [10] [%] | pest or weed control at 20 g/ha [11] [%] | pest or weed control at 80 g/ha [11] [%] | pest or weed control at 80 g/ha [13] [%] | pest or weed control at 20 g/ha [14] [%] | also measured
CCNC(=O)c1c(C(F)(F)F)ccc(C(=O)Nc2nnnn2CC)c1Cl [Example 2-130] | 80 | 80 | 80 | 100 | 100 | 100 | 100 | 100 | 100 | 100 | 100 | 100 | 90 | 80 | 80 | 80 | 100 | 100 | 100 | 100 | pest or weed control at 20 g/ha ([5]; dosage 20 g/ha): 90%; pest or weed control at 20 g/ha [12]: 90%; pest or weed control at 20 g/ha ([13]; 20 g/ha): 80%; pest or weed control at 80 g/ha [14]: 100%; pest or weed control at 5 g/ha [15]: 90%; pest or weed control at 20 g/ha [15]: 90%; pest or weed control at 80 g/ha [16]: 100%; pest or weed control at 20 g/ha [16]: 90%; pest or weed control at 20 g/ha [17]: 80%; Pre-emergence action against HORMU ([18]; 20 g/ha, scored visually after 3 weeks, 100% = plants have died, 0% = like control plants): 90%; pest or weed control at 80 g/ha [18]: 100%; pest or weed control at 20 g/ha [19]: 100%; pest or weed control at 5 g/ha [20]: 90%; pest or weed control at 20 g/ha [20]: 100%; pest or weed control at 20 g/ha [21]: 100%; pest or weed control at 80 g/ha [21]: 100%; pest or weed control at 20 g/ha [22]: 80%; pest or weed control at 20 g/ha [23]: 80%
CCn1nnnc1NC(=O)c1ccc(C(F)F)c(C(=O)NC2CC2)c1Cl [Example 2-149] | 80 | 100 | 100 | 90 | 100 | 100 | 100 | 100 | 100 | 90 | 100 | 90 | 80 | 90 | 90 | 80 | 100 | 100 | 90 | 100 | pest or weed control at 80 g/ha [24]: 100%; pest or weed control at 80 g/ha [14]: 100%; pest or weed control at 5 g/ha [15]: 80%; pest or weed control at 20 g/ha [15]: 100%; pest or weed control at 80 g/ha [16]: 100%; pest or weed control at 20 g/ha [16]: 80%; pest or weed control at 20 g/ha [17]: 80%; pest or weed control at 5 g/ha ([25]; dosage 5 g/ha): 90%; pest or weed control at 20 g/ha ([25]; dosage 20 g/ha): 100%; pest or weed control at 80 g/ha [18]: 90%; pest or weed control at 20 g/ha [19]: 100%; pest or weed control at 80 g/ha [26]: 80%; pest or weed control at 5 g/ha [20]: 100%; pest or weed control at 20 g/ha [20]: 100%; pest or weed control at 20 g/ha [21]: 90%; pest or weed control at 80 g/ha [21]: 100%; pest or weed control at 5 g/ha ([22]; dosage 5 g/ha): 90%; pest or weed control at 20 g/ha [22]: 100%; pest or weed control at 20 g/ha [23]: 80%; pest or weed control at 20 g/ha [27]: 90%
